According to patent publication US5807875A, “Amino acid derivatives, pharmaceutical compositions containing these compounds and processes for preparing them” (Dr. Karl Thomae GmbH, priority 1993, dated 1998):

Experiments:
[1] = target: T1, NPY-Y1 receptor (Homo sapiens, UniProt P25929); test: Studies of binding with SK-N-MC cells (displacement of [^125 I]-Bolton-Hunter-NPY); settings: SK-N-MC cells expressing the human Y1-receptor, 3 hours at ambient temperature
T1 construct: SK-N-MC cells (expressing the human Y1 -receptor); endogenous in cells; host or cells: SK-N-MC (human cell line), whole cells in suspension
T1 sequence (P25929 1-384): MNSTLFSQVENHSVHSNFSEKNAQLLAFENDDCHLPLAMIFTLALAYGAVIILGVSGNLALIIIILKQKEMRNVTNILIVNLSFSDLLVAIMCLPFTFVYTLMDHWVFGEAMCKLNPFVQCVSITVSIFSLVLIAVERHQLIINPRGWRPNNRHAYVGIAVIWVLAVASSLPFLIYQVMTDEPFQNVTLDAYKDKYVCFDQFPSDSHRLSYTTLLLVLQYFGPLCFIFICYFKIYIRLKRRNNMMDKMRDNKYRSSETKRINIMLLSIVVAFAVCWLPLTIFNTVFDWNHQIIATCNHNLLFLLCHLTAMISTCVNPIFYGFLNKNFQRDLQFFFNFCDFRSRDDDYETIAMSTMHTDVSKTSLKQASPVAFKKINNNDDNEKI
Procedure: A. Studies of binding with SK-N-MC cells (expressing the human Y1 -receptor)
Incubation is ended by centrifuging (10 minutes at 3000×gand 4° C.). After washing once with PBS, the radioactivity of the pellet is measured in a gamma counter. […] The proportion of non-specific binding is defined as that radioactivity which is bound in the presence of 1 μM NPY. The IC50 values of the unlabelled test substances are determined graphically.

[2] = test system: NPY activity; test: NPY-antagonism in vitro (isolated perfused rat kidney); settings: inhibition of NPY (1 μM bolus) induced pressure increase, 5 minute infusion of compound
Procedure: B. NPY-antagonism in vitro
Male rats (CHbb: THOM, 300 to 350 g) are given heparin (100 IU, i.v.) and the animals are then killed by a blow to the back of the neck. The abdomen is opened along the centre of the body and the left kidney is removed after the insertion of catheters in the renal artery, renal vein and ureter. The isolated kidney is immediately perfused with a modified Krebs-Ringer solution having the following composition (4 ml/minute):
A mixture of 95% O2 /5% CO2 is passed through the solution which is kept at a temperature of 37° C. The perfusion pressure is measured continuously using a pressure gauge. After a 60 minute stabilisation period the perfusion rate is adjusted so as to obtain a perfusion pressure of approximately 100 mm Hg. After a further 30 minutes the experiment is started and NPY (1 μM) is administered as a bolus (0.1 ml) at 15 minute intervals until the pressure increase observed reaches a constant value. The compounds to be tested are given in the form of a continuous infusion over a period of 5 minutes and then NPY is injected. After a 30 minute wash-out period the next highest concentration of test substance is investigated. 3 to 5 different concentrations of the particular compound are tested on each occasion. Concentration/activity curves can be obtained by plotting the percentage inhibition of the NPY activity against the logarithm of the concentration (mol/l) of the compound.

[3] = test system: NPY-induced blood pressure effects; test: In vivo NPY-antagonism (pithed rats); settings: Rattus norvegicus, iv, 1 min, inhibition of increase in diastolic blood pressure by NPY (10 μg/kg, i.v.), NPY given one minute after test substance, read-out: pID50 (the source's name) (converted)
Procedure: C. In vivo NPY-antagonism
Male rats of normal blood pressure (Chbb:THOM, 300 to 350 g) are anaesthetised with sodium hexobarbital (150 mg/kg, i.p.). After intubation of the trachea the animals are pithed by introducing a blunt needle through the eye into the spinal bone marrow channel. The animals are ventilated with oxygen-rich ambient air using a respiratory pump (20 strokes/minute). A cannula is inserted in the left carotid artery and the arterial blood pressure is measured using a pressure gauge (Braun Melsungen Combitrans) connected to a recording device. For injection purposes a catheter is placed in the left jugular vein through which heparin is administered (200 IU/kg, i.v.). After the blood pressure has been stabilised, the animals are given 2 bolus injections of NPY (10 μg/kg, i.v.) at intervals of 15 minutes. The average increase in diastolic blood pressure is taken as the reference value (=100%). The test substances are injected in increasing doses (4 to 6 doses) at intervals of 15 minutes. One minute after administration of the test substance, NPY is administered.
The antagonistic effect of the test substances is determined by plotting the percentage inhibition of the NPY-induced blood pressure effects against the logarithm of the concentration of active substance.

[4] = Solubility

Compound | IC50 [1] | also measured
Cc1cc(CNC(=O)C(CCCNC(=N)N)NC(=O)C(c2ccccc2)c2ccccc2)cc(C)c1O (stereo not drawn) [I] | 26 nM | 
O=C(NC(CCCNc1ncc[nH]1)C(=O)NCc1ccc(O)cc1)c1ccc2ccccc2c1 (stereo not drawn) [M] | 80.5 nM | 
CN(Cc1ccc(O)cc1)C(=O)[C@@H](CCCNC(=N)N)NC(=O)C(c1ccccc1)c1ccccc1 [G] | 25.3 nM | 
N=C(N)NCCC[C@@H](NC(=O)C(c1ccccc1)c1ccccc1)C(=O)NCc1ccc(CO)cc1 [D] | 13.5 nM | 
N=C(N)c1cccc(CC(NC(=O)C(c2ccccc2)c2ccccc2)C(=O)NCc2ccc(O)cc2)c1 (stereo not drawn) [F] | 11.3 nM | pIC50 [2]: 7.70 mol/l; ED50 [3]: 0.151 µmol/kg
N=C(N)NCCC[C@@H](NC(=O)C(c1ccc(Br)cc1)c1ccc(Br)cc1)C(=O)NCc1ccc(O)cc1 [A] | 1.8 nM | 
N=C(N)NCCC[C@@H](NC(=O)C(c1ccccc1)c1ccccc1)C(=O)NCc1ccc(CN)cc1.O=C(O)C(F)(F)F.O=C(O)C(F)(F)F [Example 128, (R)-N-[[4-(Aminomethyl)phenyl]methyl]-N^2-(diphenylacetyl)-argininamide-bis-(trifluoroacetate)] |  | solubility in dichloromethane ([4]; dichloromethane): readily soluble; solubility in dimethylsulphoxide ([4]; dimethylsulphoxide): readily soluble; solubility in methanol ([4]; methanol): readily soluble; solubility in water ([4]; water): readily soluble
N=C(N)NCCC[C@@H](NC(=O)C(c1ccccc1)c1ccccc1)C(=O)NCc1ccc(CCO)cc1 [B] | 7.7 nM | 
N=C(N)NCCC[C@@H](NC(=O)C(c1ccccc1)c1ccccc1)C(=O)NCc1ccc(O)cc1 [C] |  | pIC50 [2]: 7.15 mol/l; ED50 [3]: 0.186 µmol/kg
CC1(C)NC(=O)N(Cc2ccc(CNC(=O)[C@@H](CCCNC(=N)N)NC(=O)C(c3ccccc3)c3ccccc3)cc2)C1=O [L] | 26.8 nM | 
O=C(NCc1ccc(O)cc1)C(CCCNc1ncc[nH]1)NC(=O)C(c1ccccc1)c1ccccc1 (stereo not drawn) [H] | 18 nM | 
COc1ccc(CNC(=O)C(CCCNC(=N)N)NC(=O)C(c2ccccc2)c2ccccc2)cc1 (stereo not drawn) [K] | 32 nM | pIC50 [2]: 6.70 mol/l; ED50 [3]: 0.331 µmol/kg
O=C(NCc1ccc(O)cc1)C(Cc1ccc(C2=NCCN2)cc1)NC(=O)C(c1ccccc1)c1ccccc1 (stereo not drawn) [O] | 207 nM | 
Cc1cc(CNC(=O)C(CCCNC(=N)N)NC(=O)C(c2ccccc2)c2ccccc2)ccc1O (stereo not drawn) [E] | 10 nM | 
N=C(N)CCCCC(NC(=O)C(c1ccccc1)c1ccccc1)C(=O)NCc1ccc(O)cc1 (stereo not drawn) [P] | 39 nM | 
O=C(Nc1ccc2ccccc2c1)NC(CCCNc1ncc[nH]1)C(=O)NCc1ccc(O)cc1 (stereo not drawn) [N] | 85.5 nM | 
